Earlier results on one compound are cited in paper PMC5337940, “Sansanmycin natural product analogues as potent and selective anti-mycobacterials that inhibit lipid I biosynthesis” (Nature Communications, 2017).

Converted amounts (≈) assume the structure as drawn.

The data set concerns H37Rv. Set-up: method as in Xie et al. 14, 15. The note with it: isolated natural products; ref Xie et al. 14, 15; cited from earlier work.

`CSCC[C@H](NC(=O)N[C@@H](Cc1c[nH]c2ccccc12)C(=O)O)C(=O)N[C@H](C(=O)N/C=C1/C[C@@H](O)[C@H](n2ccc(=O)[nH]c2=O)O1)[C@H](C)N(C)C(=O)[C@@H](N)c1cccc(O)c1` [Compound 1, Sansanmycin A]: the “MIC (H37Rv)” value was 18.5 µM (≈ 15.7 µg/mL).
